Assay results: the supplement of paper PMC10307832

Key:
Experiment in all cases: relative viability (nuclei count vs DMSO), 5 days (fraction); higher = more cells survive
[1] = compound: C1=CC2=NC=CN=C2C=C1/C=C/3\C(=O)NC(=O)S3 + Nc1ncn([C@H]2C[C@H](O)[C@@H](CO)O2)c(=O)n1 [Decitabine] (partner 2 µM)
Summary of the method: (§1)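 Lung cancer cell lines in 1536-well plates got either a single drug or a fixed anchor-drug dose together with five library-drug doses (not always all listed) in √10 steps, by pin tool, on the day after seeding. Nuclei were counted after 5 days, and relative viability is the treated-to-vehicle ratio of nuclei counts. Values are medians of duplicate plates.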

[2] = compound: C1=CC2=NC=CN=C2C=C1/C=C/3\C(=O)NC(=O)S3 + CCNC(=O)c1noc(-c2cc(C(C)C)c(O)cc2O)c1-c1ccc(CN2CCOCC2)cc1 [Luminespib] (partner 0.01 µM)
Summary of the method: as §1

[3] = compound: C1=CC2=NC=CN=C2C=C1/C=C/3\C(=O)NC(=O)S3 + N=C(N)NC(=N)NCCc1ccccc1 [Phenformin] (partner 250 µM)
Summary of the method: as §1

[4] = compound: CCN1CCN(c2ccc(Nc3cc(N(C)C(=O)Nc4c(Cl)c(OC)cc(OC)c4Cl)ncn3)cc2)CC1 [BGJ398] + C[C@]1(O)C[C@@H](c2nc(-c3ccc4ccc(-c5ccccc5)nc4c3)c3c(N)nccn32)C1 [Linsitinib] (partner 1 µM)
Summary of the method: as §1

Cell Line	relative viability ([1]; first compound 0.02 µM)	relative viability ([1]; first compound 0.06325 µM)	relative viability ([1]; first compound 0.2 µM)	relative viability ([1]; first compound 0.6325 µM)	relative viability ([1]; first compound 2 µM)	relative viability ([2]; first compound 0.02 µM)	relative viability ([2]; first compound 0.06325 µM)	relative viability ([2]; first compound 0.2 µM)	relative viability ([2]; first compound 0.6325 µM)	relative viability ([2]; first compound 2 µM)	relative viability ([3]; first compound 0.02 µM)	relative viability ([3]; first compound 0.06325 µM)	relative viability ([3]; first compound 0.2 µM)	relative viability ([3]; first compound 0.6325 µM)	relative viability ([3]; first compound 2 µM)	relative viability ([4]; first compound 0.01 µM)	relative viability ([4]; first compound 0.03162 µM)	relative viability ([4]; first compound 0.1 µM)	relative viability ([4]; first compound 0.3162 µM)	relative viability ([4]; first compound 1 µM)
NCI-H2342	0.726	0.664	0.805	0.69	0.716	0.721	0.672	0.756	0.601	0.636	0.486	0.577	0.739	0.565	0.526					
SK-MES-1	0.353	0.403	0.437	0.357	0.331	0.645	0.876	0.877	0.779	0.852	0.623	0.697	0.713	0.626	0.645	1.01	1.12	1.09	1.01	1.11
HCC-366	0.284		0.386	0.306	0.276						0.609		0.632	0.612	0.575	0.743	0.736	0.699	0.801	0.784
201T	0.901	0.864	0.824	0.87	0.879	1.04	1.04	1.04	1.02	0.986	0.448	0.49	0.452	0.495	0.323	1.17	1.08	1.07	1.06	1.01
HCC-827	0.259	0.343	0.345	0.392	0.33	0.716	0.871	0.64	0.587	0.746	0.481	0.372	0.41	0.427	0.455	0.95		0.872	0.942	0.989
NCI-H647	0.339	0.458	0.382	0.432	0.488	0.173	0.196	0.168	0.127	0.102	0.587	0.56	0.591	0.384	0.437	1.06	1.29	1.26	1.17	1.08
NCI-H2023	0.205	0.237	0.205	0.195	0.222	0.701	0.713	0.773	0.757	0.745	0.441	0.452	0.438	0.426	0.329	0.602	0.831	0.657	0.688	0.646
NCI-H520	0.481	0.545	0.482	0.436	0.562	0.204	0.22	0.257	0.191	0.248	0.635	0.728	0.601	0.464	0.644	0.934	0.922	0.735	0.435	0.367
RERF-LC-KJ	0.596	0.726	0.681	0.632	0.628	1.2	1.52	1.23	1.14	1.28	0.399	0.467	0.406	0.392	0.418	0.863	0.894	0.901	0.865	0.945
A-427	0.541	0.583	0.55	0.538	0.491	0.978	0.958	1	0.842	0.991	0.291	0.247	0.374	0.332	0.261	1.12	1.15	1.15	0.884	0.799
NCI-H441	0.246	0.284	0.251	0.23	0.287	0.294	0.334	0.332	0.364	0.255	0.856	1.06	0.84	0.755	0.327	0.526	0.569	0.7	0.486	0.484
NCI-H1703																0.811	0.497	0.699	0.569	0.705
NCI-H1792	0.535		0.6	0.513	0.374	0.418	0.29	0.453	0.436	0.374	0.351	0.177	0.465	0.341	0.113	0.482	0.511	0.551	0.63	0.287
Calu-6																0.932	0.969	0.901	0.922	0.952
SK-LU-1	0.597	0.712	0.74	0.639	0.596	0.203	0.2	0.19	0.202	0.221	0.681	0.628	0.552	0.554	0.395	1.1	1.01	1.2	1.15	1.21
